Laboratory results from US6960573B2, “Vitamin D3 derivative and treating agent for inflammatory respiratory disease using same” (Teijin Limited, priority 1998, dated 2005).

Assays:
[1] = test system: hamster LPS-induced pneumonia model; assay: Neutrophilic infiltration suppressing effect, hamster LPS-induced pneumonia model; assay type: in vivo, golden hamster; conditions: Mesocricetus auratus, Neutrophil, inhaled or nasal, administered infratracheally just after LPS inhalation, neutrophils in washing after 24 hr, read-out: % Suppression (number of neutrophils, based on the control); for inhibition in vivo at 0.004 mg/kg: dose 4 μg/kg; for inhibition in vivo at 0.02 mg/kg: dose 20 μg/kg
Experimental: A male golden hamster was placed in an inhalation chamber (volume: 12 liter) and allowed to inhale LPS (nebulizer filled concentration: 2.0 mg/ml) generated by an ultrasonic nebulizer for 30 min to cause pneumonia. Just after the inhalation of the LPS, a treating agent of the present invention was administered infratracheally at a dosage of 1 to 20 μg/kg under halothane anesthesia. After 24 hr, tracheal branches and pulmonary alveoli were washed, and the number of neutrophils in the washing was determined. Using the number of neutrophils obtained in the absence of the treating agent of the present invention as the control, the decreasing rates of the numbers of neutrophils were expressed in terms of percent suppression based on the control.

[2] = Blood calcium level-elevation effect, oral administration to rats; assay type: in vivo; conditions: ratio to 1α,25-dihydroxyvitamin D3
Description: For example, the blood calcium level-elevation effects of compounds of the present invention in oral administration to rats, which are compared with that of 1 α,25-dihydroxyvitamin D3, are as shown below: • Compound No. 3105c, 1/>100 • Compound No.3405, 1/>100 • Compound No. 5102, 1/259 • Compound No. 5107, 1/11.

| Compound | inhibition in vivo at 0.004 mg/kg [1] [%] | inhibition in vivo at 0.02 mg/kg [1] [%] | blood calcium level-elevation effect compared with that of 1α,25-dihydroxyvitamin D3 [2] |
| --- | --- | --- | --- |
| C=C1/C(=C\C=C2/CCC[C@@]3(C)C2CC[C@@H]3[C@H](C)CC2CC3(CC3)C(=O)O2)C[C@@H](O)C[C@@H]1O (some centres unmarked) [2105a] | > 40 | – | – |
| C=C1/C(=C\C=C2/CCC[C@@]3(C)C2CC[C@@H]3[C@H](C)CC2=CC(=O)CC2)C[C@@H](O)C[C@@H]1O (some centres unmarked) [Compound No. 4301] | – | < 20 | – |
| C=C1/C(=C\C=C2/CCC[C@@]3(C)C2CC[C@@H]3[C@H](C)/C=C2\CCC(C)(F)C2=O)C[C@@H](O)C[C@@H]1O (some centres unmarked) [3105d] | > 40 | – | – |
| C=C1/C(=C\C=C2/CCC[C@@]3(C)C2CC[C@@H]3[C@H](C)CC2CC(C)(C)C(=O)O2)C[C@@H](O)C[C@@H]1O (some centres unmarked) [2102a] | > 40 | – | – |
| C=C1/C(=C\C=C2/CCC[C@@]3(C)C2CC[C@@H]3C(C)/C=C2\CCC(=O)C2(C)O)C[C@@H](O)C[C@@H]1O (some centres unmarked) [4203b] | 20 to 40 | – | – |
| C=C1/C(=C\C=C2/CCC[C@@]3(C)C2CC[C@@H]3[C@H](C)CCC[C@@](C)(O)C(C)=O)C[C@@H](O)C[C@@H]1O (some centres unmarked) [Compound No. 5107] | – | > 40 | 1/11 |
| C=C1/C(=C\C=C2/CCC[C@@]3(C)C2CC[C@@H]3[C@H](C)CCC[C@@](C)(O)C(=O)N(C)C)C[C@@H](O)C[C@@H]1O (some centres unmarked) [Compound No. 5102] | – | > 40 | 1/259 |
| C=C1/C(=C\C=C2/CCC[C@@]3(C)C2CC[C@@H]3[C@H](C)C[C@H]2C=C(C)C(=O)O2)C[C@@H](O)C[C@@H]1O (some centres unmarked) [Compound No. 1107b] | < 20 | – | – |
| C=C1/C(=C\C=C2/CCC[C@@]3(C)C2CC[C@@H]3[C@H](C)CC2CCC(=O)C2)C[C@@H](O)C[C@@H]1O (some centres unmarked) [4101a] | 20 to 40 | – | – |
| C=C1/C(=C\C=C2/CCC[C@@]3(C)C2CC[C@@H]3[C@H](C)/C=C2\CCN(C)C2=O)C[C@@H](O)C[C@@H]1O (some centres unmarked) [Compound No. 3405] | > 40 | – | – |
| C=C1/C(=C\C=C2/CCC[C@@]3(C)C2CC[C@@H]3[C@H](C)CCC[C@@](C)(O)C(C)(C)O)C[C@@H](O)C[C@@H]1O (some centres unmarked) [compound 5109] | – | 20 to 40 | – |
| C=C1/C(=C\C=C2/CCC[C@@]3(C)C2CC[C@@H]3[C@H](C)CCC[C@@](C)(O)C(=O)N2CCCCC2)C[C@@H](O)C[C@@H]1O (some centres unmarked) [Compound No. 5106] | – | 20 to 40 | – |
